Assay results reported in patent US8710082B2, “Benzimidazole inhibition of biofilm formation” (priority 2011, dated 2014).
Entries after “also recorded” stand apart in the source; their conditions may differ.

What was measured:
S. boydii = test: Flow-cell biofilm formation (CLSM), S. boydii; assay type: cell-based, Shigella boydii; conditions: 100 μM, 48 h
P. aeruginosa CF-145 [1] = test: MBEC static crystal-violet biofilm assay, P. aeruginosa CF-145; assay type: cell-based, Pseudomonas aeruginosa
Method: (§1) Biofilm formation was measured under both static and flow conditions. For the static condition, we used quantitative crystal violet assay on polystyrene 96-well and MBEC plates (Biosurface Technologies, Bozeman Mont.) as described previously. The MBEC technology is a 96-well plate cover containing 96 polystyrene pegs that sit in the 96 wells of a conventional plate. Briefly, overnight grown cultures were standardized to 0.1 OD595, 200 μL was transferred to the wells of a 96-well polystyrene microtiter plate (Corning, Inc., Corning, N.Y.), and the MBEC lid was placed on top of the wells. Biofilms were grown on the pegs of the lid under shaking conditions for 24 h. The lid was removed and the pegs were gently washed twice with 200 μL of phosphate-buffered saline to remove non adherent cells. Adherent biofilms on the pegs were fixed with 200 μL of 100% ethanol prior to staining for 2 min with 200 μL of 0.41% (wt/vol) crystal violet in 12% ethanol (Protocol Crystal Violet; Biochemical Sciences, Swedesboro, N.J.). […] Quantitative assessment of biofilm formation was obtained by immersing the pegs in sterile polystyrene microtiter plate containing 200 μl of 100% ethanol and incubating at room temperature for 10 min (60) and the absorbance at 595 nm was determined using a SpectraMax M5 microplate spectrophotometer system (Molecular Devices, Sunnyvale, Calif.). […]

Shigella boydii = test: MBEC static biofilm assay, S. boydii; assay type: cell-based; conditions: 100 μM
Method: as §1

[2] = tested on: K. pneumoniae pre-formed biofilms; test: Dispersal of pre-formed biofilms under flow, K. pneumoniae; assay type: cell-based, Klebsiella pneumoniae; conditions: 100 μM added at 24 hours, 3, 6 and 24-hour incubation
[3] = tested on: diguanylate cyclase (DGC) enzyme VC2370; assay type: biochemical
From the text: (§2) Furthermore, we established an in vitro assay to measure the activity of the diguanylate cyclase (DGC) enzyme VC2370 that synthesizes c-di-GMP and the phosphodiesterase (PDE) enzyme VieA that degrades c-di-GMP.

[4] = tested on: phosphodiesterase (PDE) enzyme VieA; assay type: biochemical
From the text: as §2

gram-negative bacteria = test: Impact on growth of gram-negative bacteria; assay type: cell-based; conditions: concentrations used in biofilm tests; data not shown
[5] = tested on: Staphylococcus aureus MRSA strain USA3000; test: MBEC static biofilm assay, S. aureus USA300 (CA-MRSA); assay type: cell-based; conditions: 25 μM
Method: as §1

[6] = tested on: P. aeruginosa pre-formed biofilms; test: Dispersal of pre-formed biofilms under flow, P. aeruginosa; assay type: cell-based, Pseudomonas aeruginosa; conditions: 100 μM added at 24 hours, 3, 6 and 24-hour incubation
Klebsiella pneumoniae [7] = test: MBEC static biofilm assay, K. pneumoniae; assay type: cell-based; conditions: ABC-1 between 50 and 100 μM for select pathogens, 24 hours
Method: as §1

CA-MRSA (USA-300) = test: Flow-cell biofilm formation (CLSM), CA-MRSA USA300; assay type: cell-based, Staphylococcus aureus; conditions: 25 μM, shear conditions
S. aureus strain Newman [8] = test: MBEC static biofilm assay, S. aureus Newman; assay type: cell-based, Staphylococcus aureus; conditions: 25 μM
Method: as §1

S. aureus strain Newman [9] = test: Flow-cell biofilm formation (CLSM), S. aureus Newman; assay type: cell-based, Staphylococcus aureus; conditions: 25 μM, shear conditions
Erwinia amylovora = test: MBEC static biofilm assay, E. amylovora; assay type: cell-based; conditions: 100 μM
Method: as §1

c-di-GMP in V. cholerae = assay type: cell-based, Vibrio cholerae
VC1673-lux = test: microbe, parasite or virus in culture; conditions: Vibrio cholerae, read-out: IC50 of inhibition of VC1673-lux
[10] = tested on: c-di-GMP in P. aeruginosa PA01; assay type: cell-based, Pseudomonas aeruginosa; conditions: 35 μM, data not shown
E. amylovora = test: Flow-cell biofilm formation (CLSM), E. amylovora; assay type: cell-based, Erwinia amylovora; conditions: 100 μM, continuous flow
P. aeruginosa CF-145 [11] = test: Flow-cell biofilm formation (CLSM), P. aeruginosa CF-145; assay type: cell-based, Pseudomonas aeruginosa; conditions: 100 μM, 24 h
S. aureus = assay type: cell-based, Staphylococcus aureus; conditions: data not shown
V. cholerae [12] = test: Flow-cell biofilm formation (CLSM), V. cholerae; assay type: cell-based, Vibrio cholerae; conditions: 10 μM, 24 hours
Method: For biofilm experiments under flow conditions, biofilms were grown in disposable flow cells (Stovall Life Science, Greensboro, N.C.) as described elsewhere. In brief, the inlet side of the flow cell was connected to a sterile reservoir filled with the appropriate growth medium. The outlet side was connected to a waste reservoir to create a “once-through” flow cell system. Tubing upstream of each individual cell was injected with 0.5 mL of standardized overnight culture of the test strain and the chamber was incubated in upright position at 37° C. for 1 h. Flow was then resumed with flow rate of 0.2 mL/min for V. cholerae, P. aeruginosa, S. boydii, S. aureus and K. pneumoniae, and a flow rate of 0.15 mL/min for E. amylovora. The non-adherent bacteria were eventually flushed by the flow of the medium thereby replacing the volume of the flow cell once every minute. Biofilm formation on the flow cell was imaged both macroscopically and microscopically at 24 h and 48 h. […]
For CLSM analysis of biofilms, the medium flow was stopped and fluorescent dyes syto-9 and propidium iodide (Molecular Probes, Eugene, Oreg., USA) were injected into the flow cell chamber and incubated for 30 min in the dark. […] Thickness of the biofilm was measured starting from the z-section at the flow-cell/biofilm interface to the z-section at the top of the biofilm surface containing <5% of total biomass. […]

V. cholerae [13] = test: MBEC static crystal-violet biofilm assay, V. cholerae; assay type: cell-based, Vibrio cholerae; conditions: for inhibition of V. cholerae biofilm development: 100 μM, MBEC crystal-violet assay
Klebsiella pneumoniae [14] = test: Flow-cell biofilm formation (CLSM), K. pneumoniae; assay type: cell-based; conditions: continuous flow

SMILES: COc1ccc2[nH]c(SCc3ccc(C)cc3)nc2c1 [ABC-1, 5-methoxy-2-[(4-methylbenzyl)sulfanyl]-1H-benzimidazole]
- biofilm formation under flow (S. boydii): greatly reduced biofilm formation
- inhibition of biofilms, static (P. aeruginosa CF-145 [1]; ABC-1 between 50 and 100 μM for select pathogens, MBEC static): significantly inhibited biofilms
- IC50 (P. aeruginosa CF-145 [1]; Pseudomonas aeruginosa, CF145, read-out: IC50 to inhibit biofilm formation of P. aeruginosa): 45.9 nM
- inhibition of biofilms, static (Shigella boydii): significantly inhibited biofilms; also recorded: significantly impacted
- dispersal of pre-formed biofilms [2]: did not confer any significant changes in biofilm architecture
- in vitro activity of DGC VC2370 [3]: no significant impact
- in vitro activity of PDE VieA [4]: no significant impact
- inhibition of growth of gram-negative bacteria (gram-negative bacteria): no impact on growth; also recorded: no concentration of ABC-1 showed inhibition of growth
- inhibition of biofilms, static [5]: significantly inhibited biofilms; also recorded: statistically significant (P<0.05), but less robust than observed for most gram-negative pathogens
- dispersal of pre-formed biofilms [6]: did not confer any significant changes in biofilm architecture
- inhibition of biofilms, static (Klebsiella pneumoniae [7]): significantly inhibited biofilms; also recorded: inhibited biofilm formation
- biofilm formation under flow (CA-MRSA (USA-300)): reduced compared to the untreated condition
- inhibition of biofilms, static (S. aureus strain Newman [8]): significantly inhibited biofilms; also recorded: statistically significant (P<0.05), but less robust than observed for most gram-negative pathogens
- biofilm formation under flow (S. aureus strain Newman [9]): less surface area coverage and biofilms were present as small patches
- inhibition of biofilms, static (Erwinia amylovora): significantly inhibited biofilms; also recorded: pronounced decrease
- intracellular c-di-GMP (c-di-GMP in V. cholerae): modest reduction
- IC50 (VC1673-lux): < 10 µM
- levels of c-di-GMP [10]: no effect
- biofilm development under flow (E. amylovora): pronounced decrease
- biofilm formation under flow (P. aeruginosa CF-145 [11]): greatly reduced biofilm formation
- concentration that inhibited the growth of S. aureus (S. aureus): ≥ 50 µM
- biofilm formation under flow (V. cholerae [12]): dramatically reduced biofilm formation
- inhibition of V. cholerae biofilm development (V. cholerae [13]): capable of significantly inhibiting V. cholerae biofilm development
- IC50 (V. cholerae [13]; Vibrio cholerae, read-out: IC50 to inhibit biofilm formation of V. cholerae): 32.3 nM
- biofilm formation under flow (Klebsiella pneumoniae [14]; 24 hours): inhibited biofilm formation
- fate of biofilms that did form in the presence of ABC-1 (Klebsiella pneumoniae [14]; data not shown): began to disperse beyond 30 hours

SMILES: COc1ccc2[nH]c(SCc3ccc(Cl)cc3)nc2c1 [ABC-2, 2-[(4-chlorobenzyl)thio]-5-methoxy-1H-benzimidazole]
- IC50 (VC1673-lux): < 10 µM
- inhibition of V. cholerae biofilm development (V. cholerae [13]): capable of significantly inhibiting V. cholerae biofilm development
